Laboratory results taken from patent publication US8852552B2, “Agents and methods for visualizing analytes” (priority 2010, dated 2014).

Assays:
[1] = tested on: Peptide (NH2-)FLNCCPGCCMEP(-COOH) [SEQ ID No 6]; assay: Complex formation with tetracysteine-tagged peptide in MOPS/MES/EDT buffer, LC-MS analysis; format: binding; settings: probe in DMSO + 1 mM peptide, stirred 10-30 minutes
Method: Experiments were performed according to Nature Protocols Vol.3 No.9, 1527-1534, (Adams & Tsien) with minor modifications.
Materials: Peptide (NH2—)[…](—COOH) [SEQ ID No 6], M.w: 1316.63, supplied by INNOVAGEN, Sweden, MOPS sodium salt FW: 231.2 CAS [71119-22-7], MES sodium salt FW: 164.16 CAS [19767-45-4], and EDT FW:94.2 CAS [540-63-6] were used as received.
HPLC analyses employed a Waters Alliance 2795 LC system, equipped with an XBridge C18 3.0×50 mm 3.5 μm column. The mass detector had polarity ES+/polarity ES-. Solvents, A: 0.1 M NH3 in milliQ water, B: MeOH. Gradient, A: 95% 0.1 min, 0.1-4 min A:95% to B:100%, 4.0-4.6 min B:100%.
The radiodetector employed was a Raytest Star (solid cell). Chromatography with radiodetection was performed using a Kromasil C18, 5μ 250×10 mm column, and an isocratic eluent composed of 35% acetonitrile in 50 mM ammonium acetate, at a flow rate of 2.0 mL/min.
To this solution was added 200 μL of 1 mM PSMXB-4 (in DMSO). […] The reaction mixture was stirred for 30 minutes. […] The mass peaks corresponded to dianionic and trianionic species.
To this solution was added 200 μL of 1 mM PSMXB-6 (in DMSO). […] The reaction mixture was stirred for 30 minutes. […] The mass peak corresponded to the dianionic species.
The reaction mixture is stirred for 10 minutes. […] The mass peak corresponded to the dianionic species. […] HPLC purification allowed isolation of the pure, tritiated complex.

[2] = tested on: unrelated peptide with N-terminal biotin; assay: Surface plasmon resonance, reference channel with unrelated biotinylated control peptide; format: binding; settings: 100 μM injected
Excerpt: The biotinylated peptide was immobilized on a sensor chip (Sensor Chip SA BiaCore) by non-covalent capture to streptavidin according to manufacturer instructions. An unrelated peptide with N-terminal biotin was coupled to a reference channel. […] At the end of the injection phase, the sensor surface was washed (Wash arrow FIG. 1A) with […] pH7.4, 0.15 M NaCl.

Compound | complex formation with peptide by LC-MS [1] | interaction with unrelated control peptide [2]
2,5-di-(1,3,2-Dithiarsolan-2yl)-9(4-fluorophenyl)-6-[^3H3]methoxy-3-fluorone [6-[^3H3CO]-PSMXB-6] | complete conversion into the complex | 
O=c1ccc2c(-c3ccc(F)cc3)c3ccc(O)c([As]4SCCS4)c3oc-2c1[As]1SCCS1 [PSMXB-4, 2,5-di-(1,3,2-dithiarsolan-2-yl)-9-(4-fluorophenyl)-6-hydroxy-3-fluorone] | mass spectrum consistent with the complex | 
COc1ccc2c(-c3ccc(F)cc3)c3cc([As]4SCCS4)c(=O)cc-3oc2c1[As]1SCCS1 [PSMXB-6, 2,5-di-(1,3,2-Dithiarsolan-2yl)-9(4-fluorophenyl)-6-methoxy-3-fluorone] | mass spectrum consistent with the complex | No interaction was detected
